Structures are written as SMILES.

This passage reports IC50 results from ChEMBL document CHEMBL5729087, “Pyranopyrazole and pyrazolopyridine immunomodulators for treatment of autoimmune diseases” (2022).

One assay deals with T1, Coagulation factor XII (Homo sapiens, UniProt P00748).
T1 sequence (P00748 whole entry): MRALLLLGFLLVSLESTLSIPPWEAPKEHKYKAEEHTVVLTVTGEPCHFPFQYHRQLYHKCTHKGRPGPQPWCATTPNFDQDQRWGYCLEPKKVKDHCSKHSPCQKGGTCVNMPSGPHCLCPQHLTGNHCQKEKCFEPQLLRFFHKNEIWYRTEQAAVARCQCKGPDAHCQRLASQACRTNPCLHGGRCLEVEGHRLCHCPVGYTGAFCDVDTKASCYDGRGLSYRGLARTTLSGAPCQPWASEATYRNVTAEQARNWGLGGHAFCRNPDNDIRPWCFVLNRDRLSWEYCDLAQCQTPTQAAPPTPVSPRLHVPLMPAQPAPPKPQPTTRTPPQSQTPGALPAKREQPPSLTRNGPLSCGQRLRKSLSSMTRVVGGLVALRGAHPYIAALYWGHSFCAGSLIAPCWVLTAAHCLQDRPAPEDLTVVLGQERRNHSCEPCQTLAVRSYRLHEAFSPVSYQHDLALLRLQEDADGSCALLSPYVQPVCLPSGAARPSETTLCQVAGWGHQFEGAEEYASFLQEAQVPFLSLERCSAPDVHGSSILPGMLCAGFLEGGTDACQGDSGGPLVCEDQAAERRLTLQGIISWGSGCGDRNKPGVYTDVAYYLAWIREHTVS
As to the kind of experiment: Factor XIIa (FXIIa) Inhibitory Activity: In a 96-well clear bottom plate, 80 μl of assay buffer was added to each well. Assay buffer consists of 0.5× Hank's Balanced Salt Solution (Invitrogen), buffered with 25 mM HEPES pH 7.4 (Invitrogen) and 0.5× Tris-buffered saline with Tween-20 0.05% (Santa Cruz Biotechnology). Test compounds were first dissolved in DMSO (Sigma) and then 4 μl were added to test wells containing assay buffer. Serial dilutions using an automated multi-channel pipette were used to generate a concentration range of approximately 1-100 μM. Human FXIIa (Enzyme Research Labs) was diluted in assay buffer to a final concentration of 12.5 nM. 80 μl of this enzyme solution was added to the assay wells. The enzyme/compound mixtures were incubated for 10 minutes at room temperature. Chromogenic substrate (Pefachrome XIIa; Enzyme Research Labs) was added to assay wells at a final concentration of 400 μM. The assay plate was spun for 1 minute at 1500 g and then read at 37° C. in a SpectraMax M2 plate reader (λ=405 nm). Activity was quantified as the rate of change in absorbance, which corresponds to the rate of substrate cleavage. IC50 values were determined as the concentration of inhibitor that produced 50% of the rate of change of control wells without any inhibitor. For compounds with activity <1 μM, the assay was repeated with a lower concentration range, typically from 10-1000 nM.

For the next assay, the target named is Prothrombin (Homo sapiens, UniProt P00734). As to the kind of experiment: Counterscreens for Selectivity: Thrombin. In a 96-well white opaque plate, 80 μl of assay buffer was added to each well. Test compounds were added, and serially diluted as above, to generate a concentration range of approximately 1-100 μM. Human alpha-thrombin (Enzyme Research Labs) was diluted in assay buffer to a final concentration of 12.5 nM. 80 μl of this enzyme solution was added to the assay wells. The enzyme/compound mixtures were incubated for 10 minutes at room temperature. Fluorogenic substrate (Boc-Val-Pro-Arg-7-amido-4-methylcoumarin; Sigma) was added to assay wells at a final concentration of 20 μM. The assay plate was spun for 1 minute at 1500 g and then read at 37° C. in a SpectraMax M2 plate reader (λex=380 nm and λem=460 nm). Activity was quantified as the rate of change in fluorescence, which corresponds to the rate of substrate cleavage. IC50 values were determined as the concentration of inhibitor that produced 50% of the rate of change of control wells without any inhibitor. For compounds with activity <1 μM, the assay was repeated with a lower concentration range, typically from 10-1000 nM.

`CN(C)S(=O)(=O)N1CCc2c(nn(C(=O)C3CCNc4ccccc43)c2N)C1` (stereo not given): the figures for the IC50 on Coagulation factor XII and at Prothrombin were 0.25 µM and over 75 µM, respectively.

With `Cc1cc2c(C(=O)n3nc4c(c3N)CCNC4)cccc2[nH]1`, the IC50 at Coagulation factor XII is 0.15 µM; on Prothrombin, over 150 µM.

As to `CC(C)N1CCc2c(N)nn(C(=O)C3CCNc4ccc(F)cc43)c2C1` (stereo not given), the IC50 on Coagulation factor XII is 60 µM.
